{
  "source": "patent US11484608B2",
  "about": "“Non-invasive assessment of hepatic mitochondrial metabolism by positional isotopomer NMR tracer analysis (PINTA)” (YALE UNIVERSITY, priority 2017, dated 2022)",
  "key": {"[1]": {"system": "hepatic mitochondrial fluxes (VPC, VCS)", "test": "PINTA / ex vivo NMR tracer study in rats infused with [3-^13C]lactate and [3-^3H]glucose (Example 1)", "settings": "120 min [3-^13C]lactate infusion, mean ± S.E.M.", "from_the_text": "Male Sprague-Dawley rats (˜10 weeks of age) were ordered from Charles River (Wilmington, Mass.) at ˜300 g and fed regular chow unless otherwise specified. […] Prior to studies, rats underwent surgery under general isoflurane anesthesia to place polyethylene catheters in the jugular vein and common carotid artery (PE90 and PE50 tubing, respectively; Instech, Plymouth Meeting, Pa.). After 1 week, recovery was verified by confirming that the rats had regained their surgical weight. Unless otherwise specified, all experiments were performed following an overnight fast (16 hrs food withdrawal prior to sacrifice). In both the rodent and human studies, data are represented as the mean of two technical replicates for each subject (i.e. two technical replicates per biological replicate). Sample sizes were selected to give power to detect moderate to large differences between groups (n=5-6 per group), and all animals were included in the final analysis.\nThe investigator performing the animal studies was not blinded for practical reasons, but the investigators analyzing fluxes were blinded as to the group allocation.\nThe flux calculations required the following equations using [^13C] glucose positional enrichment in plasma or liver, determined by NMR and GC/MS mass spectrometry. VPC is the rate of pyruvate carboxylase flux as determined from the anaplerotic flow into oxaloacetate (OAA). VCS is defined as the flux of the citrate synthase reaction in the citric acid cycle. […] G2 denotes [m+2] glucose arising from the condensation of two singly-labeled trioses.\nGC/MS was used to measure m+1 and m+2 [^13C]glucose enrichment. The total m+1 and m+2 [^13C]glucose enrichment was measured using a pentaacetate derivative: plasma or liver samples were deproteinized using 5 volumes of methanol, dried, and derivatized with 75 μL of 1:1 acetic anhydride:pyridine. After heating to 65° C. for 20 min, the reaction was terminated by adding 25 μL methanol, and m+1 and m+2 (as well as m+3 . . . m+6) were determined by GC/MS (CI mode, m/z 331 [m], 332 [m+1], 333 [m+2], . . . 337 [m+6]). The m+1 and m+2 [^13C] enrichments of the glucose C4C5C6 fragment were determined by generating the aldonitrile pentapropionate derivative: plasma or NMR liver extract samples were dried under N2 gas, and 50 μl hydroxylamine hydrochloride (20 mg/ml in pyridine) were added. The samples were heated at 90° C. for 60 min, then 100 μl propionic anhydride was added, after which the samples were heated at 60° C. for 30 min. Finally, the samples were evaporated under N2 gas, resuspended in ethyl acetate, and the m+1 and m+2 enrichment of the glucose C4C5C6 fragment was measured by GC/MS.\n[^13C]alanine enrichment was measured by GC/MS. [^13C] NMR spectroscopy using the BRUKER TOPSPIN® system was utilized to measure relative positional 13C-enrichment of glucose, and combined with the total [^13C]glucose enrichment ([m+1]+2*[m+2]) measured by GC/MS to calculate the positional enrichment of [13C]glucose.\nTotal [^13C]glutamate enrichment was determined by LC-MS/MS. Approximately 100 mg of liver tissue was weighed out and homogenized in 500 μl ice-cold methanol using a TissueLyser, then centrifuged at 4000 rpm for 10 minutes. The supernatant was then purified by centrifugation (4000 rpm, 10 min) through the PALL NANOSEP® filter (100K) (Port Washington, N.Y.). Glutamate 13C enrichment ([m+1], [m+2]) was then assessed by LC-MS/MS using an AB SCIEX QTRAP 6500 (Framingham, Mass.), equipped with a SHIMADZU ultra-fast liquid chromatography (UFLC) system (Columbia, Md.) and electrospray ionization (ESI) source with negative-ion detection. The measured ion pairs were 146/128 (m0), 147/129 (m+1), and 148/130 (m+2).\nPositional enrichment of glucose, glutamate, and alanine was measured by 13C NMR."}, "[2]": {"system": "NAFLD and glucose tolerance (InsP3R-I dependent)", "test": "Chronic 3.5 week glucagon infusion in high fat fed WT and InsP3R-I KO mice", "type": "in vivo, mouse", "experimental": "They underwent CLAMS metabolic cage analysis to assess energetics and food and water intake during the second week of glucagon infusion. […] 48 hr later, after a 6 hr fast, they were sacrificed under isoflurane anesthesia for measurement of hepatic lipid content as described below.\nIn the glucose tolerance tests, rodents were injected with 1 g kg^−1 50% dextrose (rats) or 10% dextrose (mice) intraperitoneally. Blood samples were taken through the venous catheter (rats) or by tail bleeding (mice) for measurement of plasma glucose and insulin concentrations as described below (Biochemical analysis).\nPlasma glucose concentrations were measured using a YSI Glucose Analyzer. […] Plasma NEFA concentrations were measured using the Wako NEFA assay, while plasma glycerol and plasma and liver amino acid concentrations were measured by GC/MS. Liver acetyl- and malonyl-CoA (standard curve R^2=0.999 and 0.999), long-chain CoA, DAG, and ceramide concentrations were measured by LC-MS/MS, hepatic glycogen content following amyloglucosidase digestion, and TAG concentrations enzymatically. cAMP concentrations were measured using the Enzo Life Sciences Direct cAMP ELISA. Protein concentrations were measured by Western blot, using antibodies from Santa Cruz (PC, PEPCK, CAMKII), Cell Signaling (ATGL, pCAMKIV, CAMKIV, pCRTC2, CRTC2, pACC, ACC, pAMPK, AMPK, pHSL, HSL, GAPDH, and β-actin), Novus Biologicals (pCAMKII), Abcam (pATGL), LSBio (pInsP3R-I), and BD Transduction Laboratories (InsP3R-II, InsP3R-III, PKCε). The antibody to pATGL was kindly provided by Dr. Hei Sook Sul, while the antibody to total InsP3R-I was custom-made using an epitope against the last 18 amino acids of InsP3R-I. Gluconeogenic gene mRNA expression was measured by qPCR^45 using primers sequences as follows: […]"}},
  "data": [
    {"substance": "glucagon", "values": [
      {"measurement": "VPDH/VCS (%)", "setting": "[1]; rat liver", "value": "2.7 ± 0.1", "unit": "%"},
      {"measurement": "VPK+ME/VPC+PDH (%)", "setting": "[1]; rat liver", "value": "<2", "unit": "%"},
      {"measurement": "VPC/VEGP (%)", "setting": "[1]; rats", "value": "65 ± 3", "unit": "%"},
      {"measurement": "hepatic lipid content or glucose tolerance", "setting": "[2]; diet-induced obese InsP3R-I KO mice", "value": "did not manifest any alterations"},
      {"measurement": "body weight, food and water intake, activity and energy expenditure", "setting": "[2]; diet-induced obese WT mice", "value": "unchanged"},
      {"measurement": "glucose tolerance", "setting": "[2]; diet-induced obese WT mice", "value": "marked improvement"},
      {"measurement": "hepatic ceramide concentrations", "setting": "[2]; diet-induced obese WT mice", "value": "without any alterations"},
      {"measurement": "reductions in liver triglyceride and diacylglycerol content and PKCε translocation", "setting": "[2]; diet-induced obese WT mice, four-week continuous glucagon infusion", "value": "50-80%"}
    ]}
  ]
}
